Reference: PMC5931191, “Reversible stapling of unprotected peptides via chemoselective methionine bis-alkylation/dealkylation” (Chemical Science, 2018)
Entries after “also recorded” stand apart in the source; their conditions may differ. Where a SMILES comes first, the peptide text is derived from it.

Legend:
[1] = test system: U2OS cells; test: LDH release assay
Experimental: concentration of 10 μM in FBS free medium and incubated with the cells for 4 hours at 37°C. After that, the medium
was removed and the cells were gently washed 2 times with PBS and then fixed with 4% paraformaldehyde (Alfa
Aesar, MA) in PBS for 10 minutes. The cells were again washed 2 times with PBS and stained with 1μg/ml 4', 6-
diamidino-2-phenylindole (DAPI) (Invitrogen, CA) in PBS for 5 minutes. Images of peptide localization in cells were
taken on PerkinElmer confocal microscopy under the same parameters and processed using Volocity software package
LDH release was performed by using Cytotoxicity LDH Assay Kit-WST®. Briefly, ~10000 cells suspension was added
to each well of the 96 well plate and allowed to grow overnight. The cells were then incubated with the fresh medium
containing serial dilution of peptides at 37 °C for 4h. Lysis Buffer was added as positive control at 37 °C for 30min.
After that, 50μL of the incubation medium were taken out to another 96 well plate followed the addition of 50μL Working
Solution and incubated for 30min at room temperature. Then 25μL Stop Solution was added into the wells. The
absorbance at 490 nm was measured by a microplate reader (Perkin Elmer, Envision, 2104 Multilabel Reader). The
LDH release activity was calculated by (LDH% samples-LDH% blank) / (LDH% positive control -LDH% blank).

[2] = test system: HeLa cells; test: Flow cytometry cellular uptake in HeLa cells; format: cell-based
[3] = test system: U2OS cells; test: Flow cytometry cellular uptake in U2OS cells; format: cell-based; settings: FITC-labelled peptides 10 µM, 4 h, 37 °C, FACS, Fig. S4 (legend not available)
[4] = Dealkylation of cyclic peptides with 2-mercaptopyridine (regeneration of linear peptide); format: physicochemical; settings: chemical stability under reductive conditions; 2-mercaptopyridine (10 equiv., 10 mM) in PBS pH 7.4, 37 °C, different time points, HPLC / LC-MS; Fig. 3A, B
Experimental: in linear gradient mixtures.
1. Preparation of alkylated sulfonium peptides[1]
The alkylated reagent (1.2 equiv)
Then the solution was purified by reversed […]
peptide can be gradually regenerated to the linear peptide.
To 100 µL of each solution 1 µL […]
linear gradient from 10% to 70% acetonitrile over 15min. […]
quantified by LC/MS-based peak detection at 254nm.
4. Flow Cytometry Analysis
T47D cells were seeded in
37°C), washed with PBS, and resuspended in PBS. […]
cytometer (Becton Dickinson) and CellQuest Pro (or CFlow plus).

[5] = target: T1, Recombinant Human Caspase-3 protein (Homo sapiens, UniProt P42574); test: In vitro caspase-3 AMC release assay; format: biochemical; settings: peptide 5 µM, caspase-3 0.4 ng/µL, 1 h, read every 5 min, Ex 340 nm / Em 450 nm, triplicates; Fig. 5C
T1 construct: purchased RnD SYSTEMS
T1 sequence (P42574 29-175 limits assumed): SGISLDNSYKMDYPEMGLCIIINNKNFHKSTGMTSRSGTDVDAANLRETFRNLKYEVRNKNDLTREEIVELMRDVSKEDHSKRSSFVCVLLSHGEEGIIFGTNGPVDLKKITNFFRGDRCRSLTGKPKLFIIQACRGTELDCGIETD
T1 sequence (P42574 176-277 limits assumed): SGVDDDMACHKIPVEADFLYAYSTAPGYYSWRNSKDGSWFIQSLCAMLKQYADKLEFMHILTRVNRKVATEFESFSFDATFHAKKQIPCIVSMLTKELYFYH
Experimental: 8. AMC release Assays.
In vitro Caspase-3 assay:
(§1) AMC conjugated peptides 16-19 (50 μL, 5μM)
All experiments were performed in triplicates with […]
blank control) to induce the activity of caspase-3. […]
(§2) collected by centrifugation.
(§3) Besides, an induced well pretreated with the caspase pan-

[6] = target: T2, caspase-3 in U2OS cell lysates (Homo sapiens, UniProt P42574); test: AMC release assay in U2OS cell lysate; format: biochemical; settings: peptide 5 µM, 24 h, Fig. 5D
T2 construct: endogenous in cells; host or cells: U2OS cells, ABT-737-induced, lysed
T2 sequence (P42574 29-175 limits assumed): T1 sequence (P42574 29-175 limits assumed)
T2 sequence (P42574 176-277 limits assumed): T1 sequence (P42574 176-277 limits assumed)
Experimental: 8. AMC release Assays. […]
as §1
All experiments were performed in triplicates with
blank control) to induce the activity of caspase-3.
as §2, §3

[7] = test system: U2OS cells; test: AMC release (caspase-3) assay in live U2OS cells; format: cell-based; settings: ABT-737 10 µM 1 h, peptide 5 µM, after incubation for 12 hours, Fig. S9
Experimental: (§4) experiments were performed in triplicates with consistent results.
(§5) 100μl U2OS cells were cultured in 96 well plate (~5000 cells / well) overnight, then 0.1 μl of ABT-737 stock solution (10 mM, 1 h) was added into half of the wells to induce apoptosis. After that, peptide 16, 17i, 18i, and 19 stock solution (final concentration of 5 µM) were added into the cells. At different time points, the fluorescence of the wells treated […]
(§6) difference in fluorescence yields between ABT-737 treated and untreated cells was plotted as a function of time to represent the caspase-3 activities in live cells.
(§7) U2OS cells were cultured in 24 well plates with imaging dishes (50000 cells/well) and then treated with peptide 17i, 18i and 19 (100µM) in FBS free medium for 4h. Then the medium was removed and the cells were cultured with a fresh medium containing 10mM GSH for 8h, 16h, or 24h. The release efficiency of AMC was monitored using fluorescence microscopy with pseudo-colored in blue as described.
(§8) Table S1. Conversion of peptide 1 to peptide 1a in different solvents at different time intervals.
(§9) Table S2. Peptide sequences and observed masses following HPLC purification. Calculated and Found m/z are presented as [M+H] + / [M/2+H] +/ [M/3+H] +/ [M/4+H] +.
(§10) Peptide Sequence Calculated mass Observed mass
(§11) (1 picture or pasted object on this page, not shown here)

[8] = test system: U2OS cells; test: Confocal microscopy of AMC release in U2OS cells; format: cell-based
Experimental: as §4, §5, §6, §7, §8, §9, §10, §11

[9] = test system: trypsin; test: In vitro trypsin digestion assay; settings: peptide 1 mM in PBS pH 7.4, 100 µL + 1 µL trypsin (1 mg/mL) (1%), 37 °C, different time intervals, LC/MS peak detection at 254 nm; compared with linear peptide 1; Fig. 3C
Experimental: LC-MS spectra were carried out on SHIMAZU LC-MS 8030 (ESI-MS) in positive ion mode.
trypsin (1 mg/mL) was added and incubated at 37°C. At different time interval, the solution was mixed with 12%
trichloroacetic acid (H2O/CH3CN: 2:1) to inactivate the trypsin.
the peptide remaining was examined by LC/MS with a grace smart C18 250× 4.6mm column, using a 4% per minute
linear gradient from 10% to 70% acetonitrile over 15min. The amount of starting material left in each sample was

In the case of `CCCC[C@H](NC(=O)[C@H](CC(=O)O)NC(=O)[C@H](CCCNC(=N)N)NC(=O)[C@H](CCCNC(=N)N)NC(=O)[C@H](CCCNC(=N)N)NC(=O)[C@H](CCCNC(=N)N)NC(=O)[C@H](CCCNC(=N)N)NC(=O)[C@H](CCCNC(=N)N)NC(=O)[C@H](CCCNC(=N)N)NC(=O)[C@H](CCCNC(=N)N)NC(=O)[C@H](CCCNC(=N)N)NC(C)=O)C(=O)N[C@@H](CC)C(=O)N[C@@H](CC(=O)O)C(=O)Nc1ccc2c(C)cc(=O)oc2c1` [compound 19] (HELM PEPTIDE1{[ac].R.R.R.R.R.R.R.R.R.D.[Nle].[Abu].D.[Cc1cc(=O)oc2cc(N[*:1])ccc12]}$$$$V2.0), the membrane lysis effect ([1]; Fig. S7B (confocal, 100 µM) and S8 (LDH release, 4 h, 10% serum)) is reported as “membrane lysis effect”.
In the case of “FITC-βA-(cyclo-c)-MRRRM-NH2 (sidechain bridge or staple) [11c, peptide 11 cyclized using linker c]”, the “cellular uptake efficiency (flow cytometry) in the presence of serum” value ([2]; 10% fetal bovine serum, 5, 10, 20 µM, Fig. S5) is reported as “same tendency as in the absence of serum”, the “cellular uptake efficiency (flow cytometry)” value ([2]; FITC-labelled peptides 10 µM, 4 h, 37 °C, absence of serum, trypsin wash, FACS, Fig. 4C) is reported as “best uptake; also recorded: better cellular uptake than the thioether cyclic peptide” and the “cellular uptake efficiency (flow cytometry)” value [3] is reported as “best uptake”.
For “Ac-W-(cyclo-c)-MRGDM-NH2 (sidechain bridge or staple) [1c, peptide 1 Met bis-alkylated with linker c]”, the “regeneration of the parental linear peptide 1 (dealkylation)” value [4] was “time-dependent regeneration of the parental peptide 1”.
In the case of `CCCC[C@@H]1NC(=O)[C@H](CC(=O)O)NC(=O)[C@@H](NC(C)=O)CSCc2ccc(cc2)-c2ccc(cc2)CSC[C@H](C(=O)N[C@@H](CC(=O)O)C(=O)Nc2ccc3c(C)cc(=O)oc3c2)NC1=O` [18i] (HELM PEPTIDE1{[ac].C.D.[Nle].[dC].D.[Cc1cc(=O)oc2cc(N[*:1])ccc12]}|CHEM1{[c1cc(-c2ccc(C[*:2])cc2)ccc1C[*:1]]}$PEPTIDE1,CHEM1,2:R3-1:R1|PEPTIDE1,CHEM1,5:R3-1:R2$$$V2.0), the “membrane toxicity (LDH release)” value ([1]; 160 µM, 4 h, 10% serum, Fig. S8) is reported as “negligible membrane toxicity”.
In the case of “cyclo-i-Met-Asp-Nle-Met-Asp-AMC (sidechain bridge or staple) [17i, Met bis-alkylated peptide 17 with linker i]”, the “AMC release / susceptibility to caspase-3 in vitro” value [5] is reported as “not a suitable substrate for caspase-3”, the “AMC release in cell lysate pretreated with pan caspase inhibitor FMK” value ([6]; U2OS lysate, FMK 100 µM) is reported as “reduced significantly” and the “time-dependent AMC release in cell lysate” value ([6]; lysate of U2OS cells induced with ABT-737 (10 µM, 1 h), without FMK, triplicates) is reported as “increased gradually during 24 h”. The “caspase-3 activity (AMC release) in live cells” value [7] was “higher caspase-3 activity than the linear peptide 16, while lower than 19”, the “AMC fluorescence in cells (confocal) in the presence of serum” value ([8]; peptide 50 µM 4 h with 10% fetal bovine serum, GSH 10 mM 16 h, ABT-737 10 µM 1 h, Fig. S7A) was “weaker fluorescence intensity” and the “AMC fluorescence in cells (confocal, 405 nm excitation)” value ([8]; peptide 100 µM 4 h in FBS free medium, then 10 mM GSH 8, 16 or 24 h, then ABT-737 10 µM 1 h, Fig. 5E, S7B) was “lighted gradually”.
With “Ac-W-(cyclo-d)-MRGDM-NH2 (sidechain bridge or staple) [1d, peptide 1 Met bis-alkylated with linker d]” the “regeneration of the parental linear peptide 1 (dealkylation)” value [4] was “time-dependent regeneration of the parental peptide 1”.
In the case of `CCCC[C@H](NC(=O)[C@H](CC(=O)O)NC(=O)[C@H](CCSC)NC(C)=O)C(=O)N[C@@H](CCSC)C(=O)N[C@@H](CC(=O)O)C(=O)Nc1ccc2c(C)cc(=O)oc2c1` [compound 17] (HELM PEPTIDE1{[ac].M.D.[Nle].M.D.[Cc1cc(=O)oc2cc(N[*:1])ccc12]}$$$$V2.0), the “AMC release / susceptibility to caspase-3 in vitro” value [5] is reported as “quick degradation”.
With `CC(=O)N[C@@H](Cc1c[nH]c2ccccc12)C(=O)N[C@H]1CC[S+](C)Cc2ccc(cc2)-c2ccc(cc2)C[S+](C)CC[C@@H](C(N)=O)NC(=O)[C@H](CC(=O)O)NC(=O)CNC(=O)[C@H](CCCNC(=N)N)NC1=O` (stereo partly drawn) [1i] the “trypsin stability (peptide remaining)” value [9] was “significantly enhanced the trypsin stability”.
